# Literature values as cited in patent US20050255458A1, “Drug discovery assays based on the biology of chronic disease” (priority 2002, published 2005).
# Like-named read-outs stand apart in the source and are kept apart here.
# How the values were obtained:
# HSV-1 = settings: cited from earlier work
# tissue factor (TF) gene = settings: cited from earlier work
# TF promoter = settings: cited from earlier work
# ERK [1] = settings: cited from earlier work
# Elk-1 = settings: Peterziel 1999; cited from earlier work
# AR gene = settings: cited from earlier work
# [2] = system: hair follicles (onset of anagen); settings: topical 10 nmol twice weekly, female CD-1 mice; cited from earlier work
# sebocytes = settings: 10^−6 M, cited from earlier work
# [3] = system: AU565 breast carcinoma cells; settings: cited from earlier work
# [4] = system: ML-1 human myeloblastic leukemic cells; settings: cited from earlier work
# endogenous AR gene = settings: 10^−8 M, cited from earlier work
# NF-κB [5] = settings: cited from earlier work
# DC = settings: inhaled; cited from earlier work
# GABP = settings: Ojuka 2003; cited from earlier work
# TF [6] = settings: cited from earlier work
# TF [7] = settings: cited from earlier work; remark: listed apart in the source
# ACE = biological target: T1, ACE (Mesocricetus auratus, UniProt Q50JE5); settings: cited from earlier work
# T1 construct: from tissue; host or cells: whole animal, in vivo (hamster)
# T1 sequence (Q50JE5 36-1314): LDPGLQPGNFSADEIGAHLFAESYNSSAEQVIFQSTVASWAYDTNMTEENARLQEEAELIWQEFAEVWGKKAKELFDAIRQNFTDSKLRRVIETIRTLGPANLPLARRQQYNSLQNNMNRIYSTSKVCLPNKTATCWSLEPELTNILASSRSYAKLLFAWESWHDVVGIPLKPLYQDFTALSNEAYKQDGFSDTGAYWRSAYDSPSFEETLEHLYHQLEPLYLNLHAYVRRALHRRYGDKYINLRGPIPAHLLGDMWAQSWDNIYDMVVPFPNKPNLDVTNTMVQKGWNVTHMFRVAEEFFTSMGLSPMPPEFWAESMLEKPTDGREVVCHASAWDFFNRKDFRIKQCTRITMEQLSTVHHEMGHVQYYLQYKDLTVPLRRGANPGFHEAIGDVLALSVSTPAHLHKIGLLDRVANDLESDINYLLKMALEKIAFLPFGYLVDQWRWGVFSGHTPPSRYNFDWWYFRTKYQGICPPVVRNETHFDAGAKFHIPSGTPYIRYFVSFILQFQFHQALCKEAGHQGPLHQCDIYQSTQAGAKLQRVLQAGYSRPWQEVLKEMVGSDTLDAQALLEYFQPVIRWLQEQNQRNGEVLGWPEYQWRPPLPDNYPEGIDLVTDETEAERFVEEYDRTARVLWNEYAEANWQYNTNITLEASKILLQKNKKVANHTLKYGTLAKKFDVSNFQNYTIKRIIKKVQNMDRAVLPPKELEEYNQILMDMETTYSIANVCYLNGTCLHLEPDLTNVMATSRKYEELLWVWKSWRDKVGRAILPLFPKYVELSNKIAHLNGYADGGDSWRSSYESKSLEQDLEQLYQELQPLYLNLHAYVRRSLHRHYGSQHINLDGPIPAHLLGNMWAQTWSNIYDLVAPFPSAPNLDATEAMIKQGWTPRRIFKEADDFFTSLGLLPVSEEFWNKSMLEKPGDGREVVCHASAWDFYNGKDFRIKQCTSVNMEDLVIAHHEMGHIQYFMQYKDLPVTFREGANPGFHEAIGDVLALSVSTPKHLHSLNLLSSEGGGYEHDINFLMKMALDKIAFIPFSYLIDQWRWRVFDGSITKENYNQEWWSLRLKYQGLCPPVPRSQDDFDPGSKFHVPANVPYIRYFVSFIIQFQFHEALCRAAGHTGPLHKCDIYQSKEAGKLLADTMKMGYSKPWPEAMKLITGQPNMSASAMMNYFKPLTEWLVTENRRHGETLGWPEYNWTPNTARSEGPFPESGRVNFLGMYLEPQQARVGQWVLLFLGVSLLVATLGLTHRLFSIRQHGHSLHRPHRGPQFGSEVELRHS
# [8] = system: hamsters on a high-cholesterol diet; settings: 8 weeks, cited from earlier work
# ERK [9] = settings: cited from earlier work; remark: listed apart in the source
# [10] = system: abdominal subcutaneous adipocytes; settings: obese vs non-obese (Hellstrom 2000); cited from earlier work
# [11] = cited from earlier work
# NF-κB [12] = settings: various cells and tissues; cited from earlier work
# [13] = drinking water, 4 months, vs untreated obese (fa/fa); cited from earlier work
# MDAY-D2 tumor = settings: 500 μg daily s.c., cited from earlier work
compound,measurement,setting,value
"Nc1nc2c(ncn2COCCO)c(=O)[nH]1 [ACV, aciclovir]",copy number of latent HSV-1 genomes,"HSV-1; 7 days from first day post infection, day 44, relative to IgG",decreased the copy number of latent HSV-1 genomes
"CC1=C(/C=C/C(C)=C/C=C/C(C)=C/C(=O)O)C(C)(C)CCC1 [ATRA, all-trans retinoic acid]",TF mRNA,"tissue factor (TF) gene; 10^−5 mol/L, 30 minutes",decrease in TF mRNA
same,"binding of c-Fos/c-Jun, c-Rel/p65 and Sp1 to their sites","tissue factor (TF) gene; 10^−5 mol/L, 30 minutes",no change in binding
same,rate of TF transcription (run-on),"tissue factor (TF) gene; LPS 10 μg/ml 1 hour, ATRA 10^−5 mol/L 30 minutes before LPS",decreased TF transcription
same,LPS induced increase in LUC transcription,TF promoter; 30-minute ATRA before 5-hour LPS,no decrease
same,LUC activity,"TF promoter; ATRA 10^−5 mol/L, 30 minutes, vs untreated",no decrease in LUC activity
"C[C@]12CCC(=O)C[C@@H]1CC[C@@H]1[C@@H]2CC[C@]2(C)[C@@H](O)CC[C@@H]12 [DHT, Dihydrotestosterone]",ERK phosphorylation,ERK [1]; LNCaP or PC-3 cells (Guo 2000),no increase in ERK phosphorylation
same,Effect on [ERK^phos],ERK [1]; LNCaP,↑[ERK^phos]
same,Effect on [ERK^phos],ERK [1]; primary genital skin fibroblasts,↑[ERK^phos]
same,Effect on [ERK^phos],ERK [1]; primary prostatic stormal cells,↑[ERK^phos]
same,Elk-1 transcription activity,Elk-1,increase in Elk-1 transcription activity
same,AR mRNA half life,AR gene; LNCaP,Increased mRNA half life
same,AR transcription in run-on assays,AR gene; LNCaP,Decreased transcription
same,Effect on [mRNAAR],AR gene; LNCaP,↓[mRNAAR]
same,AR mRNA half life,AR gene; MDA453,Decreased mRNA half life
same,AR transcription in run-on assays,AR gene; MDA453,No change in run-on
same,Effect on [mRNAAR],AR gene; MDA453,↓[mRNAAR]
same,delay in hair regrowth,[2],3-4 week
same,decrease in DNA synthesis (^3H-thymidine uptake),sebocytes; vs untreated,40%
same,sebocyte differentiation (lipid accumulation),sebocytes; statistically insignificant,small increase
"CC(=O)OCC(CCn1cnc2cnc(N)nc21)COC(C)=O [FCV, famciclovir]",establishment of viral latency,HSV-1; 9-10 days treatment early in infection,effective in limiting the establishment of viral latency
COc1cccc(-c2cc(=O)c3ccccc3o2)c1N [PD98059],effect on HRGβ1-induced cell growth arrest,[3]; 0-10 μM PD98059,dose-dependently reversed
same,cell differentiation,"[3]; HRGβ1 alone, PD98059 as pretreatment",dose-dependently inhibited
same,ML-1 proliferation with TPA,[4]; 10 μM PD98059 with 0.3 ng/ml TPA,continued to proliferate
same,decrease in TPA-stimulated ERK2 activity,[4]; 1 h,2 fold
same,decrease in TPA-stimulated ERK2 activity,[4]; 3 h,10 fold
"C[C@]1(O)CC[C@H]2[C@@H]3CCC4=CC(=O)CCC4=C3C=C[C@@]21C [R1881, methyltrienolone]",transcription of endogenous AR gene,endogenous AR gene; 8 hours,85 % of control
same,transcription of endogenous AR gene,endogenous AR gene; 24 hours,73 % of control
same,Effect on [ERK^phos],ERK [1]; PMC42 human breast cancer cells,↑[ERK^phos]
same,Effect on [mRNAAR],AR gene; LNCaP,↓[mRNAAR]
CCC(=O)OCC(=O)[C@@]1(OC(=O)CC)[C@@H](C)C[C@H]2[C@@H]3CCC4=CC(=O)C=C[C@]4(C)[C@@]3(Cl)[C@@H](O)C[C@@]21C [beclomethasone dipropionate],NF-κB activation,NF-κB [5],decreases NF-κB activation
same,number of DC in asthma,DC,decreased the excessive number of DCs in asthma
Cn1c(=O)c2c(ncn2C)n(C)c1=O [caffeine],GABP binding to the N-box,GABP,increase of GABP binding
C[C@H](CS)C(=O)N1CCC[C@H]1C(=O)O [captopril],nuclear translocation of c-Rel/p65 induced by endotoxin,TF [6]; 20 μg/mL,almost completely inhibited
same,TF activity,TF [6]; dose-dependent,decreased TF activity
same,level of TF antigen and mRNA in the cultured cells,TF [7],decreased the level of TF antigen and mRNA
same,decrease in HDL,"ACE; 100 mg/kg/day, 6 weeks, vs week 3 and 4",24%
same,number of subendothelial macrophage derived foam cells,"ACE; 100 mg/kg/day, after 6 weeks of treatment",52±9 cell/mm^2
same,area of extracellular lipid particles,ACE; after 6 weeks of treatment,"157±36 μm2×1,000"
same,area of fatty streak,ACE; after 6 weeks of treatment,"55±12 μm2×1,000"
same,average size of a foam cell,ACE; after 6 weeks of treatment,89±5 μm^2
same,cell size of macrophage derived foam cells,[8],did not change the cell size
same,decrease of fatty streak area,[8],35%
same,heart rate,[8],348±6 beats/min
same,mean arterial pressure,[8],110±5 mm Hg
same,subendothelial number of macrophage derived foam cells in the aortic arch,[8],108±10 cells/mm^2
same,plasma total cholesterol,"[8]; pravastatin 34, captopril 100 mg/kg/day",did not change plasma lipids
O=C1CN(/N=C/c2ccc(-c3ccc([N+](=O)[O-])cc3)o2)C(O)=N1 [dantrolene],GABP binding to the N-box,GABP,prevented the effect
"CCCC(=O)Nc1ncnc2c1ncn2[C@@H]1O[C@@H]2COP(=O)(O)O[C@H]2[C@H]1OC(=O)CCC [dibutyryl cAMP, dibutyryl cyclic AMP]",ERK activation,ERK [9]; adipocytes,activated ERK
same,decrease in maximum induced glycerol release,[10],50%
"Nc1nc(O)c2ncn(COC(CO)CO)c2n1 [ganciclovir, Ganciclovir]",actuarial incidence of TxCAD,"[11]; 28 days prophylaxis, follow-up 4.7±1.3 years",43±8%
same,patients who developed TxCAD,"[11]; CMV seronegative recipients, 14 patients",28%
CC(C)NCC(O)c1ccc(O)c(O)c1 (stereo not drawn) [isoprenaline],ERK activation,ERK [9]; CHO/K1 cells expressing the human β3AR,activated ERK
same,ERK activation,ERK [9]; adipocytes,activated ERK
same,decrease in maximum induced glycerol release,[10],50%
CC[C@H](C)C(=O)O[C@H]1CCC=C2C=C[C@H](C)[C@H](CC[C@@H]3C[C@@H](O)CC(=O)O3)[C@H]21 [mevastatin],NF-κB activation,NF-κB [12],inhibited NF-κB activation
O=C(O)C[C@H](O)C[C@H](O)/C=C/c1c(C2CC2)nc2ccccc2c1-c1ccc(F)cc1 [pitavastatin],NF-κB activation,NF-κB [12],inhibited NF-κB activation
[Na+].[Na+].[Na+].[O]=[V]([O-])([O-])[O-] [sodium orthovanadate],decrease in body weight,[13],43%
same,tumor weights,"MDAY-D2 tumor; day 14, 11 mice with tumors",0.08 to 0.47 g
same,decrease in tumor growth,MDAY-D2 tumor,more than 85%
